Test results as given in ChEMBL document CHEMBL1201862, “PubChem BioAssay data set” (2004).
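Tested at 5 concentrations; 48 h exposure; 96-well plates; endpoints linearly interpolated, else capped at highest concentration. At the GI50, growth is halved.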 Active and inactive are the calls of the source. No stated cut-off is given here; in the data, active = GI50 up to about 1.1 µM and inactive = higher.

Tests used:
Assay in all cases: growth of human tumour cells (NCI), 48 h
DLD-1 = tested on: DLD-1
HOP-92 = tested on: HOP-92
UO-31 = tested on: UO-31
SF-539 = tested on: SF-539
HCT-116 = tested on: HCT-116
SNB-75 = tested on: SNB-75
SF-295 = tested on: SF-295
SK-OV-3 = tested on: SK-OV-3
LOX IMVI = tested on: LOX IMVI
RXF 393 = tested on: RXF 393
SNB-78 = tested on: SNB-78
COLO 205 = tested on: COLO 205
MDA-MB-435 = tested on: MDA-MB-435
SN12C = tested on: SN12C
XF498 = tested on: XF498
SK-MEL-2 = tested on: SK-MEL-2
NCI/ADR-RES = tested on: NCI/ADR-RES
SK-MEL-28 = tested on: SK-MEL-28
CAKI-1 = tested on: CAKI-1
TK-10 = tested on: TK-10
RPMI-8226 = tested on: RPMI-8226
NCI-H522 = tested on: NCI-H522
HOP-18 = tested on: HOP-18
ACHN = tested on: ACHN
A549 = tested on: A549
U-251 = tested on: U-251
HCT-15 = tested on: HCT-15
LXFL 529 = tested on: LXFL 529
MOLT-4 = tested on: MOLT-4
SW-620 = tested on: SW-620
DMS-114 = tested on: DMS-114
IGROV-1 = tested on: IGROV-1
SR = tested on: SR
BT-549 = tested on: BT-549
786-0 = tested on: 786-0
HL-60 = tested on: HL-60
SK-MEL-5 = tested on: SK-MEL-5
KM12 = tested on: KM12
NCI-H23 = tested on: NCI-H23
M19-MEL = tested on: M19-MEL
OVCAR-4 = tested on: OVCAR-4
OVCAR-8 = tested on: OVCAR-8
OVCAR-5 = tested on: OVCAR-5
HCC 2998 = tested on: HCC 2998
K562 = tested on: K562
T47D = tested on: T47D
Malme-3M = tested on: Malme-3M
DU-145 = tested on: DU-145
SF-268 = tested on: SF-268
PC-3 = tested on: PC-3
MDA-MB-231 = tested on: MDA-MB-231
HT-29 = tested on: HT-29
UACC-62 = tested on: UACC-62
M14 = tested on: M14
MCF7 = tested on: MCF7
CCRF-CEM = tested on: CCRF-CEM
DMS-273 = tested on: DMS-273
OVCAR-3 = tested on: OVCAR-3
NCI-H460 = tested on: NCI-H460
MDA-N = tested on: MDA-N
HOP-62 = tested on: HOP-62
A498 = tested on: A498
UACC-257 = tested on: UACC-257
EKVX = tested on: EKVX
SNB-19 = tested on: SNB-19
Hs-578T = tested on: Hs-578T
KM-20L2 = tested on: KM-20L2
NCI-H226 = tested on: NCI-H226
RXF 631 = tested on: RXF 631

CCN(CC)CC(=O)O[C@]1(CC)C(=O)OCc2c1cc1n(c2=O)Cc2cc3ccccc3nc2-1
GI50 (DLD-1): 0.916 µM (active)
GI50 (HOP-92): 0.211 µM (active)
GI50 (UO-31): 0.0196 µM (active)
GI50 (SF-539): < 0.0139 µM (active)
GI50 (HCT-116): 0.0307 µM (active)
GI50 (SNB-75): 0.0266 µM (active)
GI50 (SF-295): 0.0102 µM (active)
GI50 (SK-OV-3): 0.0826 µM (active)
GI50 (LOX IMVI): < 0.0116 µM (active)
GI50 (RXF 393): 0.0836 µM (active)
GI50 (SNB-78): 0.953 µM (active)
GI50 (COLO 205): 0.209 µM (active)
GI50 (MDA-MB-435): 0.0703 µM (active)
GI50 (SN12C): 0.0204 µM (active)
GI50 (XF498): 0.2 µM (active)
GI50 (SK-MEL-2): 0.382 µM (active)
GI50 (NCI/ADR-RES): < 0.01 µM (active)
GI50 (SK-MEL-28): 0.179 µM (active)
GI50 (CAKI-1): < 0.01 µM (active)
GI50 (TK-10): 1.36 µM (inactive)
GI50 (RPMI-8226): 0.165 µM (active)
GI50 (NCI-H522): 0.0247 µM (active)
GI50 (HOP-18): 0.0908 µM (active)
GI50 (ACHN): < 0.01 µM (active)
GI50 (A549): 0.0237 µM (active)
GI50 (U-251): < 0.01 µM (active)
GI50 (HCT-15): 0.17 µM
GI50 (LXFL 529): 0.404 µM (active)
GI50 (MOLT-4): < 0.01 µM (active)
GI50 (SW-620): 0.0946 µM (active)
GI50 (DMS-114): 0.0142 µM (active)
GI50 (IGROV-1): 0.11 µM (active)
GI50 (SR): < 0.01 µM (active)
GI50 (BT-549): 0.0413 µM (active)
GI50 (786-0): < 0.0107 µM (active)
GI50 (HL-60): 0.0171 µM (active)
GI50 (SK-MEL-5): 0.0313 µM (active)
GI50 (KM12): 0.149 µM (active)
GI50 (NCI-H23): < 0.016 µM (active)
GI50 (M19-MEL): 0.0902 µM (active)
GI50 (OVCAR-4): 0.201 µM (active)
GI50 (OVCAR-8): 0.0285 µM (active)
GI50 (OVCAR-5): 0.0885 µM (active)
GI50 (HCC 2998): 0.149 µM (active)
GI50 (K562): 0.0451 µM (active)
GI50 (T47D): < 0.01 µM (active)
GI50 (Malme-3M): 0.219 µM (active)
GI50 (DU-145): < 0.01 µM (active)
GI50 (SF-268): < 0.012 µM (active)
GI50 (PC-3): 0.054 µM (active)
GI50 (MDA-MB-231): 3.37 µM (inactive)
GI50 (HT-29): 0.0957 µM (active)
GI50 (UACC-62): < 0.01 µM (active)
GI50 (M14): < 0.0201 µM (active)
GI50 (MCF7): < 0.01 µM (active)
GI50 (CCRF-CEM): < 0.01 µM (active)
GI50 (DMS-273): < 0.01 µM (active)
GI50 (OVCAR-3): 0.219 µM (active)
GI50 (NCI-H460): < 0.01 µM (active)
GI50 (MDA-N): 0.0951 µM (active)
GI50 (HOP-62): < 0.01 µM (active)
GI50 (A498): 0.0583 µM (active)
GI50 (UACC-257): 0.0798 µM (active)
GI50 (EKVX): 0.256 µM (active)
GI50 (SNB-19): < 0.01 µM (active)
GI50 (Hs-578T): 3.21 µM (inactive)
GI50 (KM-20L2): 0.152 µM (active)
GI50 (NCI-H226): 0.0209 µM (active)

Nc1nc2c(ncn2CC(CO)CC(c2ccccc2)P(=O)(O)O)c(=O)[nH]1 (stereo unspecified)
GI50 (DLD-1): > 100 µM (inactive)
GI50 (HOP-92): > 100 µM (inactive)
GI50 (UO-31): > 100 µM (inactive)
GI50 (SF-539): > 100 µM (inactive)
GI50 (HCT-116): > 100 µM (inactive)
GI50 (SF-295): > 100 µM (inactive)
GI50 (SK-OV-3): > 100 µM (inactive)
GI50 (LOX IMVI): > 100 µM (inactive)
GI50 (RXF 393): > 100 µM (inactive)
GI50 (SNB-78): > 100 µM (inactive)
GI50 (COLO 205): > 100 µM (inactive)
GI50 (SN12C): > 100 µM (inactive)
GI50 (XF498): > 100 µM (inactive)
GI50 (SK-MEL-2): > 100 µM (inactive)
GI50 (SK-MEL-28): > 100 µM (inactive)
GI50 (CAKI-1): > 100 µM (inactive)
GI50 (TK-10): > 100 µM (inactive)
GI50 (RPMI-8226): > 100 µM (inactive)
GI50 (NCI-H522): > 100 µM (inactive)
GI50 (HOP-18): > 100 µM (inactive)
GI50 (ACHN): > 100 µM (inactive)
GI50 (A549): > 100 µM (inactive)
GI50 (U-251): > 100 µM (inactive)
GI50 (HCT-15): > 100 µM
GI50 (LXFL 529): > 100 µM (inactive)
GI50 (MOLT-4): > 100 µM (inactive)
GI50 (SW-620): > 100 µM (inactive)
GI50 (DMS-114): > 100 µM (inactive)
GI50 (IGROV-1): > 100 µM (inactive)
GI50 (SR): > 100 µM (inactive)
GI50 (786-0): > 100 µM (inactive)
GI50 (HL-60): > 100 µM (inactive)
GI50 (SK-MEL-5): > 100 µM (inactive)
GI50 (KM12): > 100 µM (inactive)
GI50 (NCI-H23): > 100 µM (inactive)
GI50 (M19-MEL): > 100 µM (inactive)
GI50 (OVCAR-8): > 100 µM (inactive)
GI50 (OVCAR-5): > 100 µM (inactive)
GI50 (HCC 2998): > 100 µM (inactive)
GI50 (K562): > 100 µM (inactive)
GI50 (Malme-3M): > 100 µM (inactive)
GI50 (SF-268): > 100 µM (inactive)
GI50 (HT-29): > 100 µM (inactive)
GI50 (UACC-62): > 100 µM (inactive)
GI50 (M14): > 100 µM (inactive)
GI50 (CCRF-CEM): > 100 µM (inactive)
GI50 (DMS-273): > 100 µM (inactive)
GI50 (OVCAR-3): > 100 µM (inactive)
GI50 (NCI-H460): > 100 µM (inactive)
GI50 (HOP-62): > 100 µM (inactive)
GI50 (A498): > 100 µM (inactive)
GI50 (UACC-257): > 100 µM (inactive)
GI50 (EKVX): > 100 µM (inactive)
GI50 (SNB-19): > 100 µM (inactive)
GI50 (KM-20L2): > 100 µM (inactive)
GI50 (NCI-H226): > 100 µM (inactive)

COc1cc(C=O)c(-c2cc3c(cc2C=O)OCO3)c(OC)c1OC
GI50 (DLD-1): 88.7 µM (inactive)
GI50 (HOP-92): 29.6 µM (inactive)
GI50 (SF-539): 81.8 µM (inactive)
GI50 (HCT-116): 64.3 µM (inactive)
GI50 (SF-295): 70 µM (inactive)
GI50 (SK-OV-3): 98.6 µM (inactive)
GI50 (LOX IMVI): 85.7 µM (inactive)
GI50 (RXF 393): 63.5 µM (inactive)
GI50 (COLO 205): 92.5 µM (inactive)
GI50 (SN12C): 85.9 µM (inactive)
GI50 (SK-MEL-2): 65.6 µM (inactive)
GI50 (SK-MEL-28): 144 µM (inactive)
GI50 (CAKI-1): 76.9 µM (inactive)
GI50 (TK-10): 210 µM (inactive)
GI50 (RPMI-8226): 96.6 µM (inactive)
GI50 (NCI-H522): 41.8 µM (inactive)
GI50 (HOP-18): > 290 µM (inactive)
GI50 (ACHN): > 290 µM (inactive)
GI50 (A549): 93.8 µM (inactive)
GI50 (U-251): 126 µM (inactive)
GI50 (HCT-15): 73.3 µM
GI50 (LXFL 529): 78 µM (inactive)
GI50 (MOLT-4): 96.2 µM (inactive)
GI50 (SW-620): 94.6 µM (inactive)
GI50 (DMS-114): 84.5 µM (inactive)
GI50 (IGROV-1): 143 µM (inactive)
GI50 (SR): 93.1 µM (inactive)
GI50 (786-0): 84.9 µM (inactive)
GI50 (HL-60): 94.8 µM (inactive)
GI50 (SK-MEL-5): 94.6 µM (inactive)
GI50 (KM12): 59.3 µM (inactive)
GI50 (NCI-H23): 63.1 µM (inactive)
GI50 (M19-MEL): 89.1 µM (inactive)
GI50 (OVCAR-8): 117 µM (inactive)
GI50 (OVCAR-5): > 290 µM (inactive)
GI50 (HCC 2998): 210 µM (inactive)
GI50 (K562): 87.1 µM (inactive)
GI50 (Malme-3M): 96.6 µM (inactive)
GI50 (SF-268): 101 µM (inactive)
GI50 (HT-29): 79.6 µM (inactive)
GI50 (UACC-62): 90.6 µM (inactive)
GI50 (CCRF-CEM): 88.1 µM (inactive)
GI50 (DMS-273): 85.5 µM (inactive)
GI50 (OVCAR-3): 56.6 µM (inactive)
GI50 (NCI-H460): 103 µM (inactive)
GI50 (HOP-62): 108 µM (inactive)
GI50 (UACC-257): 123 µM (inactive)
GI50 (RXF 631): 115 µM (inactive)
GI50 (EKVX): 178 µM (inactive)
GI50 (SNB-19): 202 µM (inactive)
GI50 (KM-20L2): 69.5 µM (inactive)
GI50 (NCI-H226): 93.1 µM (inactive)
